Measured values taken from ChEMBL document CHEMBL1149728, “11-oxoaerothionin: a cytotoxic antitumor bromotyrosine-derived alkaloid from the Caribbean marine sponge Aplysina lacunosa” (J Nat Prod, 1992).
Converted amounts (≈) assume the structure as drawn.

Legend:
[1] = tested on: MCF7; assay: Cytotoxicity against human MCF7 cells; format: functional, cell-based
[2] = tested on: SK-MEL-5; assay: Cytotoxicity against human SK-MEL-5 cells; format: functional, cell-based
[3] = tested on: HCT-116; assay: Cytotoxicity against human HCT116 cells; format: functional, cell-based
[4] = tested on: CCRF-CEM; assay: Cytotoxicity against human CCRF-CEM cells; format: functional, cell-based
[5] = tested on: Escherichia coli; assay: Antimicrobial activity against Escherichia coli; format: functional
[6] = tested on: Staphylococcus aureus; assay: Antimicrobial activity against Staphylococcus aureus; format: functional
[7] = tested on: Pseudomonas aeruginosa; assay: Antimicrobial activity against Pseudomonas aeruginosa; format: functional

Q: Which IC50 [1] does the source give for COC1=C(Br)[C@@H](O)[C@]2(C=C1Br)CC(C(=O)NCCC(=O)CNC(=O)C1=NO[C@]3(C=C(Br)C(OC)=C(Br)[C@@H]3O)C1)=NO2 here?
A: Its IC50 is 20 µg/mL (≈ 24 µM).

Q: What about the IC50 [2] of the same compound?
A: Its IC50 is 10 µg/mL (≈ 12 µM).

Q: And the IC50 [3]?
A: Its IC50 is 10 µg/mL (≈ 12 µM).

Q: What about the IC50 [4] of the same compound?
A: Its IC50 is 3.5 µg/mL (≈ 4.21 µM).

Q: And the MIC [5]?
A: Its MIC is 10 µg/mL (≈ 12 µM).

Q: And the MIC [6]?
A: Its MIC is 30 µg/mL (≈ 36.1 µM).

Q: And the MIC [7]?
A: Its MIC is 30 µg/mL (≈ 36.1 µM).
